According to patent publication US20240115654A1, “INTRAVENOUS ADMINISTRATION OF ENGINEERED ANTIMICROBIAL AMPHIPHILIC PEPTIDES” (priority 2021, published 2024):
Where two headings read alike, the source gives them in different places. Peptide text beside a SMILES is read from it.

How the values were obtained:
[1] = mice
From the text: (§1) Male CD-1 mice will be received from an approved vendor and allowed to acclimate for a minimum of two days. Fasting will be not required.
(§2) All dosing syringes will be weighed prior to and following dosing. IV doses will be administered as a slow bolus (over ˜30 seconds) via direct venipuncture of a tail vein. All animals will be observed at dosing and each scheduled collection. All abnormalities will be recorded.
(§3) Terminal blood samples will be collected via cardiac puncture following inhalation anesthesia.
(§4) Sample Processing and Storage: Blood samples will be collected into K2EDTA tubes and stored on wet ice. Whole blood will be processed to plasma by centrifugation (3500 rpm at 5° C.) within 30 minutes of collection. Plasma samples will be split into 2 equal aliquots and each transferred into 96 well plates (matrix tubes) and stored at −80° C. until analysis. Administered doses will be determined gravimetrically.
(§5) Prior to extraction, a known concentration of a mass-adjusted internal standard (IS) will be added to assess recovery and allow for quantitation. Purified samples will be further subjected to high-performance liquid chromatography (HPLC) using C18 300 or 130 angstrom columns prior to MS/MS analysis. Multiple charge states will be observed by MS, so MS/MS will be employed to enable multiple reaction monitoring (MRM) analyses to determine the most MRM transitions with the highest signal-to-noise gain. Compound plasma concentrations will be determined by comparing to and compensating with co-purified IS peak intensity and validated calibrated standard curves.
(§6) Pharmacokinetic parameters will be calculated using non-compartmental methods as implemented in the Phoenix® WinNonlin® ver. 6.3 comprehensive TK/PK analysis software program (Pharsight Corporation; Mountain View, CA) using an IV infusion model. Pharmacokinetic analysis will be conducted using a 30-minute intravenous infusion time. Therefore, 30 minutes will be added to each sample time point postdose to obtain nominal time for TK analysis. Nominal times and dosage levels will be used for all calculations. Values below the lower limit of quantitation (BLQ) will be assigned a value of zero for the pharmacokinetic calculations. Microsoft® Excel® 2013 will be used for receipt of bioanalytical data, minor formatting, including setting BLQ values to “0”, transfer into WinNonlin® for PK analysis, and calculation of the mean when an approximated value will be excluded. All plasma concentration data from all animals will be included in the analysis. Graphical presentations will be performed using Microsoft® Excel® 2013.

[2] = mouse, in vivo, iv, 3 mg/kg
From the text: as §1, §2, §3, §4, §5, §6

For `CC(C)[C@H](NC(=O)[C@H](Cc1c[nH]c2ccccc12)NC(=O)[C@H](CCCNC(=N)N)NC(=O)[C@H](CCCNC(=N)N)NC(=O)[C@@H](NC(=O)[C@@H](NC(=O)[C@H](CCCNC(=N)N)NC(=O)[C@@H](NC(=O)[C@@H](NC(=O)[C@H](CCCNC(=N)N)NC(=O)[C@H](CCCNC(=N)N)NC(=O)[C@H](Cc1c[nH]c2ccccc12)NC(=O)[C@@H](NC(=O)[C@H](CCCNC(=N)N)NC(=O)[C@H](CCCNC(=N)N)NC(=O)[C@@H](NC(=O)[C@H](CCCNC(=N)N)NC(=O)[C@H](CCCNC(=N)N)NC(=O)[C@@H](NC(=O)[C@H](Cc1c[nH]c2ccccc12)NC(=O)[C@H](CCCNC(=N)N)NC(=O)[C@@H](N)CCCNC(=N)N)C(C)C)C(C)C)C(C)C)C(C)C)C(C)C)C(C)C)C(C)C)C(=O)N[C@@H](CCCNC(=N)N)C(=O)N[C@@H](CCCNC(=N)N)C(N)=O` [SEQ ID NO: 1] (H-RRWVRRVRRVWRRVVRVVRRWVRR-NH2), the AUCinf ([1]; 3 mg/kg IV) was <3500 ng·h/mL, the CL ([1]; 3 mg/kg IV) was ~5 mL/min/kg and the Extrapolated ([1]; 3 mg/kg IV) was ~0.5%. For the same compound, the MRT last ([1]; 3 mg/kg IV) was ~30 min, the T1/2 ([1]; 3 mg/kg IV) was ~480 min and the Vss ([1]; 3 mg/kg IV) was ~0.2 L/kg. The Vz ([1]; 3 mg/kg IV) was ~3 L/kg, the AUCinf_D ([1]; 15 mg/kg IV) was 3589 kg·ng·h/mL/ng and the Extrapolated ([1]; 15 mg/kg IV) was 0.49%. The Tmax [2] was 2 min.
